The values that follow are results of earlier work, collected in paper PMC4956526 (Bioconjugate chemistry, 2016).

For the data set the following is noted: ref 40 (Lau et al.).

In the case of liraglutide, the subcutaneous bioavailability is given as 66%.
As for semaglutide, the subcutaneous bioavailability is recorded as 94%.
